In this assay the target is T1, CaV2.2 (Homo sapiens, UniProt Q00975).
T1 construct: expressed in transfected cells; host or cells: HEK293
Description: VIPR optical membrane potential assay with electrical stimulation. In kind it is cell-based. The procedure, abridged:
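HEK293 cells stably expressing CaV2.2, stained with CC2-DMPE (10 μM final) and oxonol voltage-sensitive dyes, compound added with BaCl2. Membrane potential response evoked by 3-5 s electrical stimulation. Read as background-subtracted 460/580 nm emission ratio, response R=Rf/Ri, normalized to mibefradil positive and no-drug negative controls.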

The mark [1] stands for this setting: Table 3, biological assay data, read-out: IC50.

Where two headings read alike, the source gives them in different places.

T1 sequence (Q00975 whole entry): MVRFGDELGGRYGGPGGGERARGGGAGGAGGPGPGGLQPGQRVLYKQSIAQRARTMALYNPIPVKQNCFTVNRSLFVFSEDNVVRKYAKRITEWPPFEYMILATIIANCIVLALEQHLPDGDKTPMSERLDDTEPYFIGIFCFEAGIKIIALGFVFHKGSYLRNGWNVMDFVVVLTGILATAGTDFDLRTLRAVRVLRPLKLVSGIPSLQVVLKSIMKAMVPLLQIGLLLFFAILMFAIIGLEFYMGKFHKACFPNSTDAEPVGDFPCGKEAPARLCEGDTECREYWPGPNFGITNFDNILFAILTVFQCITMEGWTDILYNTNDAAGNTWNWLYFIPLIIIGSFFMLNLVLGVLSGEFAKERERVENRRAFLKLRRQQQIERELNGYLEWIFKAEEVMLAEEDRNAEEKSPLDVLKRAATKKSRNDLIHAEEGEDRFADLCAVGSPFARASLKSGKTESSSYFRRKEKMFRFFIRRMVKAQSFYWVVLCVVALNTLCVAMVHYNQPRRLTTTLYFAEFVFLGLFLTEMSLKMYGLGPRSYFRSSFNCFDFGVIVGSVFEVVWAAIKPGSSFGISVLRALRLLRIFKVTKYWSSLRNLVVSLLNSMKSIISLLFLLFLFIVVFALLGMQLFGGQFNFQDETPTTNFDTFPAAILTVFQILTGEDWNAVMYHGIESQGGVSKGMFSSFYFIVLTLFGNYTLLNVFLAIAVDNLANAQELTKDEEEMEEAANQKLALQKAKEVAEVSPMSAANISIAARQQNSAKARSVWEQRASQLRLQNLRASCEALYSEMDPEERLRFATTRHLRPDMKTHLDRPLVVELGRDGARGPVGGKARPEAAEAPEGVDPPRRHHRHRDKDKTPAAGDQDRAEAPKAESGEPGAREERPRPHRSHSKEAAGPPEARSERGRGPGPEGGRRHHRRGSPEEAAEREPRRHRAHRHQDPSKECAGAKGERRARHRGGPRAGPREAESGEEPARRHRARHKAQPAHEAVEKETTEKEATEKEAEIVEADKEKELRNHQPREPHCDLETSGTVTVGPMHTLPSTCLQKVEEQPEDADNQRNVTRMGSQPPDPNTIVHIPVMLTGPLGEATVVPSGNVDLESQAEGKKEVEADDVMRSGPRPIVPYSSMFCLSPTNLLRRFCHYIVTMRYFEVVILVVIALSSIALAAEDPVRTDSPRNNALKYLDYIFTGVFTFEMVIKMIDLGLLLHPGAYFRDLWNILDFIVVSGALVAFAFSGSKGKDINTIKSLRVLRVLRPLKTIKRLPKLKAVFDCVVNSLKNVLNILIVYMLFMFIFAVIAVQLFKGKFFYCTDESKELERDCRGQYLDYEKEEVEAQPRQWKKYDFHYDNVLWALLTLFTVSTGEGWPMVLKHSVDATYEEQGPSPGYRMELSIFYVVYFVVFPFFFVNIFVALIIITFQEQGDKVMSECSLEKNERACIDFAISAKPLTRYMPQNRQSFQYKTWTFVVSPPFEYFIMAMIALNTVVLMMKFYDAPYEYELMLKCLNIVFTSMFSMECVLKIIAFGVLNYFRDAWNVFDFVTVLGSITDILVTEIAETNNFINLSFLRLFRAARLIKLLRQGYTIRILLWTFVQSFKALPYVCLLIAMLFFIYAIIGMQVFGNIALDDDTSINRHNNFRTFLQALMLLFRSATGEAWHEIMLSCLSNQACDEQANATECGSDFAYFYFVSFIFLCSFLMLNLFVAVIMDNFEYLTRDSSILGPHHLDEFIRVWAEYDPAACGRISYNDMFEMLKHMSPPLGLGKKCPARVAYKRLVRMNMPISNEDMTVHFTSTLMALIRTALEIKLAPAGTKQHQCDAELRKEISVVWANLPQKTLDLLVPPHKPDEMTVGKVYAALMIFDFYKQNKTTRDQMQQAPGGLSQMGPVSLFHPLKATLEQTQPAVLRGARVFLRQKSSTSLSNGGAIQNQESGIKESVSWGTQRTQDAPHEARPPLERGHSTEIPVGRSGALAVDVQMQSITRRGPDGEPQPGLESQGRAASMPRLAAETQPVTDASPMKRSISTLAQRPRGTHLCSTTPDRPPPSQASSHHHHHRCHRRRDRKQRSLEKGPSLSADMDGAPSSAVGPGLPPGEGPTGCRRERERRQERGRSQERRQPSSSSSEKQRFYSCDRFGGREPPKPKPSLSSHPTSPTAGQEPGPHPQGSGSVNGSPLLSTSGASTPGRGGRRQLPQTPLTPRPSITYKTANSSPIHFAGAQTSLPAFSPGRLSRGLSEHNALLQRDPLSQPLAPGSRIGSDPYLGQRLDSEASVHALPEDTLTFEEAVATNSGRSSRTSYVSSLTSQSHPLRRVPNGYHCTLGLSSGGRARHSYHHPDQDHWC
T1 sequence (P54284 whole entry partner): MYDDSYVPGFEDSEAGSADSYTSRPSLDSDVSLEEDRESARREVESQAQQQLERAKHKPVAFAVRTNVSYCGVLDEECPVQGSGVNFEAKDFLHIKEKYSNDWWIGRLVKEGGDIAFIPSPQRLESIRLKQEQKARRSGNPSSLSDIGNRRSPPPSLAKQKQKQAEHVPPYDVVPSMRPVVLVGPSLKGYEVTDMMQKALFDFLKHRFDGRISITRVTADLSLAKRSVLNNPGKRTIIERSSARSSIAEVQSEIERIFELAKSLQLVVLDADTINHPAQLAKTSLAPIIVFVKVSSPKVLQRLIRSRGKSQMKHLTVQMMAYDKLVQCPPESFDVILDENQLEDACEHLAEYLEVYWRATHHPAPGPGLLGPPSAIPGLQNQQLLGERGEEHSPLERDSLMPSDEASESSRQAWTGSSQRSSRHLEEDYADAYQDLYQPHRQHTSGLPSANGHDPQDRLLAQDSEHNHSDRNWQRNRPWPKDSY
T1 sequence (P54289 25-946 partner limits assumed): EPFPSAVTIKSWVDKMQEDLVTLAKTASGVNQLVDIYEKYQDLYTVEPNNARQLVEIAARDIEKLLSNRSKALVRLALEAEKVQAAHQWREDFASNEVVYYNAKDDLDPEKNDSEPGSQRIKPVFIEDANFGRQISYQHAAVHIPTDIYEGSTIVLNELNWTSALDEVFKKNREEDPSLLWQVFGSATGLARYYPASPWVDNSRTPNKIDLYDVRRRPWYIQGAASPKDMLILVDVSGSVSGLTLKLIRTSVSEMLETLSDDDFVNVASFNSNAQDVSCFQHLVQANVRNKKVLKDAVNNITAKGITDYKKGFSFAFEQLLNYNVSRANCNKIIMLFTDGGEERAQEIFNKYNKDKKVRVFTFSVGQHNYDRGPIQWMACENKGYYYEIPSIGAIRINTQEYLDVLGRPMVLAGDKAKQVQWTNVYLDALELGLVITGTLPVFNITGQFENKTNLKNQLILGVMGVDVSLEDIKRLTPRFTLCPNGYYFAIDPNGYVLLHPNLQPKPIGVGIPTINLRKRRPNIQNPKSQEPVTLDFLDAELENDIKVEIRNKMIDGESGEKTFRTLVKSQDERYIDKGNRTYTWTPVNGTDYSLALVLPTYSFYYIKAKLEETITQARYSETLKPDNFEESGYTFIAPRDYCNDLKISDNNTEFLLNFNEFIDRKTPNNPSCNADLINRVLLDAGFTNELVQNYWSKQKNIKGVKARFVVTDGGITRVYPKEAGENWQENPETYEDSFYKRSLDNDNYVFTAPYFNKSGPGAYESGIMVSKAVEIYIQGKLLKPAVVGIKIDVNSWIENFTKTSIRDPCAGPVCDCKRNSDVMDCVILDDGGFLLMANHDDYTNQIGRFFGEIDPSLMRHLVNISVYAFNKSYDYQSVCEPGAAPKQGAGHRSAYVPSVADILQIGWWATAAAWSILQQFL
T1 sequence (P54289 947-1103 partner limits assumed): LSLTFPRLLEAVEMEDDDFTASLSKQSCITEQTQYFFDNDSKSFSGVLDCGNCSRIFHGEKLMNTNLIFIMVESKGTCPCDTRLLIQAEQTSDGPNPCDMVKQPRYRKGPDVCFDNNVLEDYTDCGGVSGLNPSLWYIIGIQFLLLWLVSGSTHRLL

`CCN(CC)S(=O)(=O)c1ccc2oc(C(=O)NCc3ccc(C)cc3)c(C)c2c1` [compound 298]: the IC50 under setting [1] lay within 5 to 20 µM. For the molecule `Cc1c(C(=O)N2CCC3(CC2)OCCO3)oc2ccc(S(=O)(=O)N3CCCC(C)C3)cc12` (centres unmarked) [compound 299], the IC50 lay in the range of 5 to 20 µM. For `Cc1c(C(=O)N2CCCCC2)oc2ccc(S(=O)(=O)N3CCCC(C)C3)cc12` (centres unmarked) [compound 300], the IC50 under setting [1] is < 5 µM. For the molecule `CCNC(=O)c1[nH]c2ccc(S(=O)(=O)N3CCC(C)CC3)cc2c1C` [compound 301], under setting [1], the IC50 was in the range of 5 to 20 µM. The same measure, in the same setting: the figure for `Cc1c(C(=O)NC2CC2)oc2ccc(S(=O)(=O)NCc3ccncc3)cc12` [compound 302] is < 20 µM; for `CNC(=O)c1cc2cc(S(=O)(=O)N3CCCCCC3)ccc2[nH]1` [compound 303] it is < 5 µM; for `O=C(NC1CCCC1)c1cc2cc(S(=O)(=O)N3CCCCCC3)ccc2o1` [compound 304] it is < 5 µM. For `Cc1c(C(=O)NCc2ccccc2)oc2ccc(S(=O)(=O)N3CCCCC3)cc12` [compound 305], under setting [1], the IC50 lay in the range of 5 to 20 µM.

In the case of `CC1CCN(S(=O)(=O)c2ccc3[nH]cc(C(N)=O)c3c2)CC1` [compound 306], the IC50 under setting [1] is < 20 µM.

As to `Cc1c(C(=O)N2CCC(C)CC2)oc2ccc(S(=O)(=O)N3CCCCCC3)cc12` [compound 307], the IC50 under setting [1] was < 5 µM. With `CCN(CC)S(=O)(=O)c1ccc2oc(C(=O)N(C)Cc3ccccc3)c(C)c2c1` [compound 308], the IC50 under setting [1] was < 5 µM.

For `Cc1c(C(=O)NC2CCCCC2)[nH]c2ccc(S(=O)(=O)N3CCCCCC3)cc12` [compound 309], the half-maximal inhibitory concentration (IC50) under setting [1] is < 5 µM. Take `CCNC(=O)c1oc2ccc(S(=O)(=O)N3CCCC(C)C3)cc2c1C` (centres unmarked) [compound 310]: under setting [1], the IC50 lay within 5 to 20 µM.

For `CC1CCN(S(=O)(=O)c2ccc3oc(C(=O)N4CCCCC4)cc3c2)CC1` [compound 311], the IC50 under setting [1] is < 5 µM. Same read-out and setting: the figure for `CN(c1ccc2[nH]c(C(=O)NC3CC3)cc2c1)S(=O)(=O)c1ccccc1` [compound 312] is 5 to 20 µM; for `CC1CCN(S(=O)(=O)c2ccc3[nH]c(C(=O)N4CCN(C)CC4)cc3c2)CC1` [compound 313] it is 5 to 20 µM. With `CCN(CC)C(=O)c1cc2cc(S(=O)(=O)N3CC(C)CC(C)C3)ccc2n1CC(O)CN(C)C` (centres unmarked) [compound 314], the IC50 under setting [1] was in the range of 5 to 20 µM.

As for `CCN(CC)C(=O)c1cc2cc(S(=O)(=O)N3CCC(C)CC3)ccc2[nH]1` [compound 315], under setting [1], the IC50 was < 5 µM. The same measure, in the same setting: to `Cc1c(C(=O)NC2CC2)oc2ccc(S(=O)(=O)Nc3ncns3)cc12` [compound 316] belongs < 20 µM; to `Cc1c(C(=O)N(C)Cc2ccccc2)oc2ccc(S(=O)(=O)N3CCCCCC3)cc12` [compound 317], < 5 µM; to `CCN(CC)S(=O)(=O)c1ccc2oc(C(=O)NCCCc3ccccc3)c(C)c2c1` [compound 318], 5 to 20 µM. Same read-out and setting: the figure for `CC1CCN(S(=O)(=O)c2ccc3[nH]c(C(=O)N4CC(C)CC(C)C4)cc3c2)CC1` (centres unmarked) [compound 319] is 5 to 20 µM. On the same count and under the same terms, the figure for `Cc1c(C(=O)NCCC2=CCCCC2)oc2ccc(S(=O)(=O)N3CCC4(CC3)OCCO4)cc12` [compound 320] is 5 to 20 µM.

Regarding `CCCCN(C)C(=O)c1oc2ccc(S(=O)(=O)N3CC(C)CC(C)C3)cc2c1C` (centres unmarked) [compound 321], under setting [1], the IC50 was < 5 µM. As to `CCN(CC)S(=O)(=O)c1ccc2oc(C(=O)NCCC3CCOCC3)c(C)c2c1` [compound 322], the IC50 under setting [1] was < 20 µM. The same measure, in the same setting: to `CC1CC(C)CN(S(=O)(=O)c2ccc3[nH]c(C(=O)NCCCc4ccccc4)cc3c2)C1` (centres unmarked) [compound 323] belongs < 5 µM; to `Cc1c(C(=O)N2CCCC2)[nH]c2ccc(S(=O)(=O)N3CC(C)CC(C)C3)cc12` (centres unmarked) [compound 324], < 5 µM; to `CCCCN(C)C(=O)c1oc2ccc(S(=O)(=O)N3CCC(C)CC3)cc2c1C` [compound 325], < 5 µM. As for `CCN(CC)Cc1cc2cc(S(=O)(=O)N3CCC(C)CC3)ccc2[nH]1` [compound 326], the IC50 under setting [1] is < 5 µM. Same read-out and setting: the figure for `CC1CC(C)CN(S(=O)(=O)c2ccc3oc(C(=O)NCC4CCOCC4)cc3c2)C1` (centres unmarked) [compound 327] is < 5 µM; for `CCOC(=O)N1CCN(C(=O)c2oc3ccc(S(=O)(=O)N(CC)CC)cc3c2C)CC1` [compound 328] it is < 20 µM; for `CC1CC(C)CN(S(=O)(=O)c2ccc3[nH]c(C(=O)NC4CCCCC4)cc3c2)C1` (centres unmarked) [compound 329] it is 5 to 20 µM. The same measure, in the same setting: the figure for `Cc1c(C(=O)N2CCCCCC2)oc2ccc(S(=O)(=O)N3CC(C)CC(C)C3)cc12` (centres unmarked) [compound 330] is < 5 µM; for `Cc1c(C(=O)NC2CCCCC2)[nH]c2ccc(S(=O)(=O)N3CC(C)CC(C)C3)cc12` (centres unmarked) [compound 331] it is < 5 µM. Still for that read-out and setting: the figure for `CCN(CC)S(=O)(=O)c1ccc2oc(C(=O)N3CCCC3)c(C)c2c1` [compound 332] is < 20 µM; for `CC1CC(C)CN(S(=O)(=O)c2ccc3oc(C(=O)N4CCCCC4C)cc3c2)C1` (centres unmarked) [compound 333] it is 5 to 20 µM. Consider `Cc1c(C(=O)N2CCCCC2C)oc2ccc(S(=O)(=O)N3CCCCCC3)cc12` (centres unmarked) [compound 334], for which the IC50 under setting [1] fell in the range of 5 to 20 µM. The same measure, in the same setting: the figure for `O=C(NCCC1CCOCC1)c1cc2cc(S(=O)(=O)N3CCCCCC3)ccc2[nH]1` [compound 335] is < 5 µM; for `CCOC(=O)C1CCN(C(=O)c2oc3ccc(S(=O)(=O)N4CC(C)CC(C)C4)cc3c2C)CC1` (centres unmarked) [compound 336] it is < 5 µM. Same read-out and setting: to `CCN(CC)S(=O)(=O)c1ccc2oc(C(=O)NCc3ccc(F)cc3)c(C)c2c1` [compound 337] belongs < 5 µM.

Turning to `CC1CCN(S(=O)(=O)c2ccc3[nH]cc(C(=O)N4CCN(C)CC4)c3c2)CC1` [compound 338], the IC50 under setting [1] is < 20 µM.

Regarding `CC1CCN(C(=O)c2cc3cc(S(=O)(=O)N4CC(C)CC(C)C4)ccc3o2)CC1` (centres unmarked) [compound 339], the IC50 under setting [1] was < 5 µM. `CC1CCN(S(=O)(=O)c2ccc3[nH]c(C(=O)NCCc4ccccc4)cc3c2)CC1` [compound 340]: the IC50 under setting [1] is < 5 µM.

Take `CCN(CC)S(=O)(=O)c1ccc2oc(C(=O)N3CCCCCC3)c(C)c2c1` [compound 341]: the IC50 under setting [1] was 5 to 20 µM. On the same count and under the same terms, the figure for `Cc1c(C(=O)N2CCC(C)CC2)[nH]c2ccc(S(=O)(=O)N3CCCCCC3)cc12` [compound 342] is < 5 µM. Turning to `Cc1c(C(=O)N2CCC3(CC2)OCCO3)oc2ccc(S(=O)(=O)N3CC(C)CC(C)C3)cc12` (centres unmarked) [compound 343], the half-maximal inhibitory concentration (IC50) is 5 to 20 µM. Consider `CC1CC(C)CN(S(=O)(=O)c2ccc3[nH]c(C(=O)N4CCC5(CC4)OCCO5)cc3c2)C1` (centres unmarked) [compound 344], for which the IC50 was < 5 µM. Take `CC1CCN(S(=O)(=O)c2ccc3[nH]c(C(=O)NCC4CCOCC4)cc3c2)CC1` [compound 345]: the IC50 under setting [1] is < 5 µM. Consider `CCOC(=O)N1CCN(C(=O)c2cc3cc(S(=O)(=O)N4CC(C)CC(C)C4)ccc3o2)CC1` (centres unmarked) [compound 346], for which the IC50 under setting [1] was < 5 µM. Consider `Cc1c(C(=O)N2CCCCCC2)oc2ccc(S(=O)(=O)N3CCC(C)CC3)cc12` [compound 347], for which, under setting [1], the IC50 was 5 to 20 µM.

For the molecule `CC1CCN(S(=O)(=O)c2ccc3[nH]c(C(=O)N4CCCCCC4)cc3c2)CC1` [compound 348], the IC50 under setting [1] is 5 to 20 µM.

With `CC1CC(C)CN(S(=O)(=O)c2ccc3c(c2)cc(C(=O)NC2CC2)n3S(=O)(=O)c2ccccc2)C1` (centres unmarked) [compound 349], under setting [1], the IC50 was < 5 µM.

For the molecule `Cc1c(C(=O)N2CCC3(CC2)OCCO3)[nH]c2ccc(S(=O)(=O)N3CCC(C)CC3)cc12` [compound 351], the IC50 is 5 to 20 µM. For the molecule `Cc1c(C(=O)NCC2CCCO2)oc2ccc(S(=O)(=O)N3CCCCC3)cc12` (centres unmarked) [compound 352], under setting [1], the IC50 fell in the range of 5 to 20 µM. The same measure, in the same setting: to `Cc1c(C(=O)N(C)C)oc2ccc(S(=O)(=O)N3CCC(C)CC3)cc12` [compound 353] belongs 5 to 20 µM. On the same count and under the same terms, to `O=C(c1cc2cc(S(=O)(=O)N3CCCCCC3)ccc2[nH]1)N1CCCCC1` [compound 354] belongs 5 to 20 µM; to `Cc1c(C(=O)NCC2CCCO2)[nH]c2ccc(S(=O)(=O)N3CCC(C)CC3)cc12` (centres unmarked) [compound 355], 5 to 20 µM.

Regarding `CCN(CC)S(=O)(=O)c1ccc2oc(C(=O)N3CCC4(CC3)OCCO4)c(C)c2c1` [compound 356], the IC50 was < 20 µM. Take `CC1CC(C)CN(S(=O)(=O)c2ccc3[nH]c(C(=O)NCc4ccccc4)cc3c2)C1` (centres unmarked) [compound 357]: under setting [1], the IC50 was < 5 µM. The same measure, in the same setting: the figure for `O=C(c1cc2cc(S(=O)(=O)N3CCCCCC3)ccc2[nH]1)N1CCCCCC1` [compound 358] is 5 to 20 µM. The same measure, in the same setting: to `Cc1c(C(=O)N2CCOCC2)oc2ccc(S(=O)(=O)N3CCC(C)CC3)cc12` [compound 359] belongs 5 to 20 µM; to `Cc1c(C(=O)N(C)Cc2ccccc2)oc2ccc(S(=O)(=O)N3CCOCC3)cc12` [compound 360], 5 to 20 µM. Same read-out and setting: to `Cc1c(C(=O)NC2CCCC2)oc2ccc(S(=O)(=O)N3CCOCC3)cc12` [compound 361] belongs < 20 µM.

With `Cc1c(C(=O)N2CCCCCC2)[nH]c2ccc(S(=O)(=O)N3CC(C)CC(C)C3)cc12` (centres unmarked) [compound 362], the IC50 under setting [1] was < 5 µM. The same measure, in the same setting: the figure for `O=C(NCC1CCOCC1)c1cc2cc(S(=O)(=O)N3CCCCCC3)ccc2o1` [compound 363] is 5 to 20 µM; for `CC1CCN(C(=O)c2cc3cc(S(=O)(=O)N4CCCCCC4)ccc3[nH]2)CC1` [compound 364] it is 5 to 20 µM. On the same count and under the same terms, the figure for `CNC(=O)c1oc2ccc(S(=O)(=O)N3CCCC(C)C3)cc2c1C` (centres unmarked) [compound 365] is 5 to 20 µM; for `CC1CC(C)CN(S(=O)(=O)c2ccc3[nH]c(C(=O)NC4CCCC4)cc3c2)C1` (centres unmarked) [compound 366] it is < 5 µM. As to `CCN(CC)S(=O)(=O)c1ccc2oc(C(=O)N3CCCCC3)c(C)c2c1` [compound 367], under setting [1], the IC50 is < 20 µM. `CC1CCN(S(=O)(=O)c2ccc3[nH]c(C(=O)N4CCCCC4)cc3c2)CC1` [compound 368]: the IC50 under setting [1] is < 5 µM.

Take `CCCCN(C)C(=O)c1oc2ccc(S(=O)(=O)N3CCCC(C)C3)cc2c1C` (centres unmarked) [compound 369]: under setting [1], the IC50 was < 5 µM.

In general, IC50 refers to the point on the concentration scale where inhibition reaches its midpoint.

The values are drawn from patent US8211935B2, “Heterocyclic derivatives for modulation of calcium channels” (Vertex Pharmaceuticals Incorporated, priority 2004, dated 2012).
